Earlier results on two compounds are cited in patent US20180193304A1, “PHYTOTERPENOID FACILITATION OF THERAPEUTIC ONSET AND EFFICACY OF SUBLINGUAL CANNABINOID ADMINISTRATION” (JC Pharma Inc., priority 2017, published 2018).

Data set [1] concerns the target T1, CB2 receptor (Homo sapiens, UniProt P34972).
The subject of data set [2] is inflammation. As to conditions: compared to steroid alternatives.
In data set [3] the target is T1, CB2 receptor. This is another data set of the same source.
The subject of data set [4] is experimental airways allergic inflammation. The note with it: oral.
The test system of data set [5] is inflammation. As to conditions: mouse, in vivo.

T1 sequence (P34972 whole entry): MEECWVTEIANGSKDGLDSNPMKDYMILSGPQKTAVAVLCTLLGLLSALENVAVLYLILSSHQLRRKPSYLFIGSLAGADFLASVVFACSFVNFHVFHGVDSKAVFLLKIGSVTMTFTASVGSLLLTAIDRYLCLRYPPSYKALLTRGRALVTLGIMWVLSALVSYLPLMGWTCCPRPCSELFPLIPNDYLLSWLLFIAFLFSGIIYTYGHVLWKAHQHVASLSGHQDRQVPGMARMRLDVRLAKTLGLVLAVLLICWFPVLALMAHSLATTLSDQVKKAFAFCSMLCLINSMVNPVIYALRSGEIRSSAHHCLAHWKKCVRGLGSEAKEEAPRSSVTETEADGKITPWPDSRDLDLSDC

In the case of `C=C1CC/C=C(\C)CC[C@@H]2[C@@H]1CC2(C)C` [β-caryophyllene], at CB2 receptor [1], the “binding to the CB2 receptor” value was “selectively binds to the CB2 receptor”. Besides, in the data set on inflammation [2], the anti-inflammatory response entry is listed as “comparable anti-inflammatory responses to steroid alternatives”. Also, at CB2 receptor [3], the “functional activity at CB2 receptor” value is “functional CB2 agonist”.

Take `C/C1=C\CC/C(C)=C/CC(C)(C)/C=C/C1` [humulene]: the reduction of inflammation result in data set [4] is “highly effective at reducing inflammation”. Further, the anti-inflammatory response result in the data set with inflammation [2] is reported as “comparable anti-inflammatory responses to steroid alternatives”. Also, the “reduction of inflammation and pain relief” value in the data set with inflammation [5] is “effective in reducing inflammation and offering pain relief”.
